# Measured values published in patent US20120027741A1 (priority 2009, published 2012).
# Structures can show the parent of a compound that is named as a salt. Where two headings read alike, the source gives them in different places.
# Key:
# Assay type in all cases: in vivo
# [1] = test system: Sphaerotheca fuliginea; assay: Sphaerotheca test (cucumbers)/protective; conditions: 7 days after inoculation
# Description: Sphaerotheca Test (Cucumbers)/Protective
# (§1) Solvent: • 24,5 parts by weight of acetone • 24,5 parts by weight of dimethylacetamide
# (§2) Emulsifier: • 1 part by weight of alkylaryl polyglycol ether
# (§3) To produce a suitable preparation of active compound, 1 part by weight of active compound is mixed with the stated amounts of solvent and emulsifier, and the concentrate is diluted with water to the desired concentration.
# To test for protect activity, young plants are sprayed with the preparation of active compound at the stated rate of application. After the spray coating has dried on, the plants are inoculated with to an aqueous spore suspension of Sphaerotheca fuliginea. The plants are then placed in a greenhouse at approximately 23° C. and a relative atmospheric humidity of approximately 70%.
# The test is evaluated 7 days after the inoculation. 0% means an efficacy which corresponds to that of the control, while an efficacy of 100% means that no disease is observed.
# [2] = test system: Phytophthora infestans; assay: whole plant or invertebrate; conditions: tomatoes, 3 days after inoculation; for pest or weed control at 12.5 ppm: read-out: Efficacy in % found, Table 2
# [3] = test system: Botrytis cinerea; assay: Botrytis test (beans)/protective; conditions: 48 h, 2 days after inoculation, read-out: Efficacy in % found; for pest or weed control at 5 ppm: Table 9, 5 ppm a.i.; for pest or weed control at 10 ppm: Table 9, 10 ppm a.i.
# Description: Botrytis Test (Beans)/Protective
# as §1, §2, §3
# To test for protective activity, young plants are sprayed with the preparation of active compound. After the spray coating has dried on, 2 small pieces of agar covered with growth of Botrytis cinerea are placed on each leaf. The inoculated plants are placed in a darkened chamber at 20° C. and a relative atmospheric humidity of 100%.
# 2 days after the inoculation, the size of the lesions on the leaves is evaluated. 0% means an efficacy which corresponds to that of the control, while an efficacy of 100% means that no disease is observed.
# [4] = test system: Pythium ultimum; assay: Pythium test (cotton)/seed treatment; conditions: emerged seedlings after 7 days
# Description: Pythium Test (Cotton)/Seed Treatment
# The test is performed under greenhouse conditions.
# Cotton seeds, treated with the active compound or compound combinations, solved in N-methyl-2-pyrrolidon and diluted with water to the desired dosages, were sown in 6*6 cm pots containing 4 cm of a 1:1 mix of steamed field soil and sand.
# Perlite was incubated with mycelium fragments of Pythium ultimum. 1 ml of infected perlite was scattered between the treated cotton seeds. Seeds were then covered by light expanded clay aggregate. Pots were incubated in the greenhouse 7 days at 20° C. and 80% relative humidity.
# Assessment consisted of counting of emerged seedlings. 0% means an efficacy which to corresponds to that of the control, while an efficacy of 100% means that all seedlings have emerged.
# [5] = Podosphaera fuliginea, 168 h, Table 7, 1 ppm a.i., read-out: Efficacy in % found
# [6] = Phytophthora infestans, 72 h, read-out: Efficacy in % found, Table 1, 0.4 ppm a.i.
# [7] = Phytophthora infestans, 72 h, read-out: Efficacy in % found, Table 1, 40 ppm a.i.
# [8] = Phytophthora infestans, 72 h, 12.5 ppm a.i.
molecule,measurement,setting,value
Fc1ccc([C@]2(Cn3cncn3)O[C@H]2c2ccccc2Cl)cc1 (racemic) [epoxiconazole],pest or weed control at 1 ppm,[1]; [5],63%
C[C@@]1(c2ccc(Oc3ccccc3)cc2)OC(=O)N(Nc2ccccc2)C1=O (racemic) [famoxadone],pest or weed control at 0.4 ppm,[2]; [6],23%
"Cn1cc(C(=O)Nc2ccccc2-c2cc(F)c(F)c(F)c2)c(C(F)F)n1 [3-(difluoromethyl)-1-methyl-N-(3′,4′,5′-trifluorobiphenyl-2-yl)-1H-pyrazole-4-carboxamide]",pest or weed control at 5 ppm,[3],65%
same,pest or weed control at 100 ppm,"[2]; Phytophthora infestans, 72 h, read-out: Efficacy in % found, Table 3, 100 ppm a.i.",35%
"Cc1cc(C(F)(F)F)nn1CC(=O)N1CCC(c2nc(C(=O)N(C)[C@@H]3CCCc4ccccc43)cs2)CC1 [N-methyl-2-(1-{[5-methyl-3-(trifluoromethyl)-1H-pyrazol-1-yl]acetyl}piperidin-4-yl)-N-[(1R)-1,2,3,4-tetrahydronaphthalen-1-yl]-1,3-thiazole-4-carboxamide]",pest or weed control at 0.1 ppm,"[2]; Phytophthora infestans, 72 h, read-out: Efficacy in % found, Table 1, 0.1 ppm a.i.",48%
CCCCCCCCc1c(CC)nc2ncnn2c1N [ametoctradin],Efficacy in % found,"[2]; Table 1, 1 ppm a.i.",22%
CO/C=C(/C(=O)OC)c1ccccc1Oc1cc(Oc2ccccc2C#N)ncn1 [azoxystrobin],Efficacy in % found,"[2]; Table 1, 0.4 ppm a.i.",30%
same,Efficacy in % found,"[1]; Table 8, 1 ppm a.i.",30%
COC(=O)[C@@H](C)N(C(=O)Cc1ccccc1)c1c(C)cccc1C [benalaxyl-M],Efficacy in % found,"[4]; Table 11, 1 g a.i./dt",4%
same,Efficacy in % found,"[2]; Table 5, 1 ppm a.i.",28%
CC(C)[C@H](NC(=O)O)C(=O)N[C@H](C)c1nc2ccc(F)cc2s1 [benthiavalicarb],Efficacy in % found,"[2]; Table 1, 0.1 ppm a.i.",48%
"Cn1cc(C(=O)Nc2ccc(F)cc2-c2ccc(Cl)c(Cl)c2)c(C(F)F)n1 [bixafen, N-(3′,4′-dichloro-5-fluorobiphenyl-2-yl)-3-(difluoromethyl)-1-methyl-1H-pyrazole-4-carboxamide]",pest or weed control at 40 ppm,[2]; [7],18%
same,pest or weed control at 1 ppm,"[1]; Podosphaera fuliginea, 168 h, Table 8, 1 ppm a.i., read-out: Efficacy in % found",0%
O=C(Nc1ccccc1-c1ccc(Cl)cc1)c1cccnc1Cl [boscalid],pest or weed control at 10 ppm,[3],73%
same,pest or weed control at 40 ppm,[2]; [7],26%
N#Cc1c(Cl)c(Cl)c(Cl)c(C#N)c1Cl [chlorothalonil],pest or weed control at 12.5 ppm,[2]; [8],20%
[Cu+2].[OH-].[OH-] [copper hydroxide],Efficacy in % found,"[2]; Table 2, 6.25 ppm a.i.",73%
[Cl-].[Cu+2].[Cu+2].[OH-].[OH-].[OH-] [copper oxychloride],Efficacy in % found,"[2]; Table 2, 6.25 ppm a.i.",60%
Cc1ccc(-c2c(Cl)nc(C#N)n2S(=O)(=O)N(C)C)cc1 [cyazofamid],pest or weed control at 0.4 ppm,[2]; [6],49%
CCNC(=O)NC(=O)/C(C#N)=N/OC [cymoxanil],pest or weed control at 1.25 ppm,"[2]; Phytophthora infestans, 72 h, read-out: Efficacy in % found, Table 6, 1.25 ppm a.i.",29%
COc1ccc(C(=CC(=O)N2CCOCC2)c2ccc(Cl)cc2)cc1OC [dimethomorph],pest or weed control at 0.4 ppm,[2]; [6],41%
CSC1=N[C@@](C)(c2ccccc2)C(=O)N1Nc1ccccc1 [fenamidone],Efficacy in % found,"[4]; Table 11, 1 g a.i./dt",4%
same,pest or weed control at 0.4 ppm,[2]; [6],57%
CC1(C(=O)Nc2ccc(O)c(Cl)c2Cl)CCCCC1 [fenhexamid],pest or weed control at 5 ppm,[3],81%
O=[N+]([O-])c1cc(C(F)(F)F)c(Cl)c([N+](=O)[O-])c1Nc1ncc(C(F)(F)F)cc1Cl [fluazinam],pest or weed control at 2 ppm,"[2]; Phytophthora infestans, 72 h, read-out: Efficacy in % found, Table 1, 2 ppm a.i.",38%
O=C(NCc1ncc(C(F)(F)F)cc1Cl)c1c(Cl)cccc1Cl [fluopicolide],Efficacy in % found,"[4]; Table 11, 10 g a.i./dt",26%
same,Efficacy in % found,"[2]; Table 1, 0.4 ppm a.i.",18%
"O=C(NCCc1ncc(C(F)(F)F)cc1Cl)c1ccccc1C(F)(F)F [fluopyram, N-{2-[3-chloro-5-(trifluoromethyl)pyridin-2-yl]ethyl}-2-(trifluoromethyl)benzamide]",pest or weed control at 10 ppm,[3],70%
same,pest or weed control at 25 ppm,"[2]; Phytophthora infestans, 72 h, read-out: Efficacy in % found, Table 3, 25 ppm a.i.",9%
CO/N=C(/C1=NOCCO1)c1ccccc1Oc1ncnc(Oc2ccccc2Cl)c1F [fluoxastrobin],pest or weed control at 0.4 ppm,[2]; [6],36%
O=c1c2cc(F)ccc2nc(-n2cncn2)n1-c1ccc(Cl)cc1Cl [fluquinconazole],pest or weed control at 0.5 ppm,"[1]; Podosphaera fuliginea, 168 h, Table 7, 0.5 ppm a.i., read-out: Efficacy in % found",63%
O=C1c2ccccc2C(=O)N1SC(Cl)(Cl)Cl [folpet],pest or weed control at 50 ppm,"[3]; Table 10, 50 ppm a.i.",79%
CCO[PH](=O)O [fosetyl-Al],Efficacy in % found,"[2]; Table 2, 12.5 ppm a.i.",0%
CC(C)NC(=O)N1CC(=O)N(c2cc(Cl)cc(Cl)c2)C1=O [iprodione],pest or weed control at 50 ppm,"[3]; Table 9, 50 ppm a.i.",70%
Cc1ccc(C(C)NC(=O)[C@@H](NC(=O)OC(C)C)C(C)C)cc1 (some centres unmarked) [iprovalicarb],Efficacy in % found,"[2]; Table 1, 0.4 ppm a.i.",0%
CC(C)C1C2CCC1c1c(NC(=O)c3cn(C)nc3C(F)F)cccc12 (centres unmarked) [isopyrazam],Efficacy in % found,"[2]; Table 1, 40 ppm a.i.",20%
C#CCOc1ccc(CCNC(=O)C(OCC#C)c2ccc(Cl)cc2)cc1OC (centres unmarked) [mandipropamid],Efficacy in % found,"[4]; Table 11, 10 g a.i./dt",0%
same,Efficacy in % found,"[2]; Table 1, 0.4 ppm a.i.",84%
COCC(=O)N(c1c(C)cccc1C)[C@H](C)C(=O)OC [mefenoxam],Efficacy in % found,"[4]; Table 11, 0.1 g a.i./dt",48%
Cc1nn(C)c(F)c1C(=O)Nc1ccccc1C(C)CC(C)C (centres unmarked) [penflufen],Efficacy in % found,"[2]; Table 1, 40 ppm a.i.",16%
CC(C)CC(C)c1sccc1NC(=O)c1cn(C)nc1C(F)(F)F (centres unmarked) [penthiopyrad],pest or weed control at 40 ppm,[2]; [7],31%
OP(O)O [phosphorous acid],Efficacy in % found,"[2]; Table 2, 12.5 ppm a.i.",0%
CCCN(CCOc1c(Cl)cc(Cl)cc1Cl)C(=O)n1ccnc1 [prochloraz],pest or weed control at 100 ppm,"[2]; Phytophthora infestans, 72 h, read-out: Efficacy in % found, Table 4, 100 ppm a.i.",26%
CCCOC(=O)NCCCN(C)C [propamocarb-HCl],pest or weed control at 12.5 ppm,[2]; [8],20%
CCCC1COC(Cn2cncn2)(c2ccc(Cl)cc2Cl)O1 (centres unmarked) [propiconazole],pest or weed control at 1 ppm,[1]; [5],13%
OC(Cc1ccccc1Cl)(Cn1nc[nH]c1=S)C1(Cl)CC1 (centres unmarked) [prothioconazole],pest or weed control at 1 ppm,[1]; [5],50%
COC(=O)N(OC)c1ccccc1COc1ccn(-c2ccc(Cl)cc2)n1 [pyraclostrobin],pest or weed control at 0.4 ppm,[2]; [6],28%
Cc1cc(C)nc(Nc2ccccc2)n1 [pyrimethanil],pest or weed control at 25 ppm,"[3]; Table 9, 25 ppm a.i.",30%
Cn1cc(C(=O)Nc2ccccc2C2CC2C2CC2)c(C(F)F)n1 (centres unmarked) [sedaxane],Efficacy in % found,"[2]; Table 1, 40 ppm a.i.",37%
CC(C)(C)C(O)(CCc1ccc(Cl)cc1)Cn1cncn1 (centres unmarked) [tebuconazole],pest or weed control at 2 ppm,"[1]; Podosphaera fuliginea, 168 h, Table 7, 2 ppm a.i., read-out: Efficacy in % found",13%
CC(C)(C)C(O)C(Oc1ccc(Cl)cc1)n1cncn1 (centres unmarked) [triadimenol],pest or weed control at 1 ppm,[1]; [5],38%
CON=C(C(=O)OC)c1ccccc1CON=C(C)c1cccc(C(F)(F)F)c1 [trifloxystrobin],pest or weed control at 2.5 ppm,"[1]; Podosphaera fuliginea, 168 h, Table 7, 2.5 ppm a.i., read-out: Efficacy in % found",58%
CCC(C)(NC(=O)c1cc(Cl)c(C)c(Cl)c1)C(=O)CCl (centres unmarked) [zoxamide],pest or weed control at 0.4 ppm,[2]; [6],16%
mancozeb,Efficacy in % found,"[2]; Table 1, 20 ppm a.i.",33%
metiram,Efficacy in % found,"[2]; Table 4, 100 ppm a.i.",26%
propineb,Efficacy in % found,"[2]; Table 2, 6.25 ppm a.i.",63%
